Laboratory results: patent US20230212296A1, “SYSTEMS AND METHODS FOR TREATING CANCER” (Arizona Board of Regents on Behalf of the University of …, priority 2020, published 2023)

Tests used:
B24 and C34 tumors = assay: B24 / C34 (HIF-1α T455D) xenografts in SCID mice; type: in vivo
Experimental: (§1) FIG. 6: Five million parental, B24, or C34 SW620 cells in PBS were injected subcutaneously into the rear flanks of mice. Once the tumors reached a volume of approximately 100 mm^3, the mice were randomized for daily treatment with vehicle or AZD1208 (30 mg/kg/day, p.o.) for up to 2 weeks or until tumor burden reached a maximum volume of 2 cm^3. Tumors were measured every 2-3 days via caliper. Upon sacrifice, tumors were harvested for IHC staining with PIM1, HIF-1α, and CC3, and mRNA was collected for analysis.
(§2) For both, the following formula was used to calculate tumor volume by caliper measurements:
(§3) V=(tumor width)^2×tumor length/2.
(§4) These lines were validated by Sanger sequencing.

PIM1 [1] = target: T1, PIM1 (Homo sapiens, UniProt P11309); type: biochemical; set-up: Recombinant full-length GST-PIM1 was incubated with recombinant GST-HIF-1α; GST; conditions: in the presence of a PIM inhibitor (AZD1208 100 nM per method) (FIG. 4A)
T1 sequence (P11309 whole entry): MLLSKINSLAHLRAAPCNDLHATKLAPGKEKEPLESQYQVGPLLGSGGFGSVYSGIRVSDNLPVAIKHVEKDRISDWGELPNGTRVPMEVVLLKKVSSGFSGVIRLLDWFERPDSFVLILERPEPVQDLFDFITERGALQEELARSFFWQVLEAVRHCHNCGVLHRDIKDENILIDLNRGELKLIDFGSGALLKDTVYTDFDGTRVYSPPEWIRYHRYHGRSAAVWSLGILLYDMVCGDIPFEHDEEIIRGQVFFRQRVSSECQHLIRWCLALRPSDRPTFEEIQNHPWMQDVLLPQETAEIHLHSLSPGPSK
Experimental: In vitro: Recombinant full-length GST-PIM1 was incubated with recombinant GST-HIF-1α, GST (negative control), or dephosphorylated myelin basic protein (MBP) in the presence or absence of AZD1208 (100 nM) and ^32P-labeled ATP in kinase assay buffer (20 mM MOPS [pH 7.0] containing 100 mM NaCl, 10 mmol/L MgCl2, and 2 mmol/L dithiothreitol). Reactions were incubated at 37° C. for 60 min prior to the addition of 5× Laemmli sample buffer. Samples were separated by SDS-PAGE and gels were stained with Coomassie prior to autoradiography or preparation for mass spectrometry.

HIF-1α = assay: Immunoblotting of HIF-1α and phospho-T455 in Dox-PIM1 PC3 cells; type: cell-based; conditions: Dox-PIM1 PC3, dox 24 h, AZD1208 3 μM for 6 h (FIG. 3C)
HIF-1 = HIF-1 reporter (HRE-Luc) assay in Dox-PIM1 cells; type: cell-based; conditions: Dox 24 h, then AZD1208 for 4 h, normoxia (FIG. 3D)
SW620 cells = assay: MTT cell viability, parental SW620 cells; type: cell-based; conditions: parental SW620, increasing doses, 24 h (FIG. 6B)
Experimental: (§5) Response to drug: Twenty thousand cells were plated onto a 96-well plate and allowed to grow for 24 h prior to addition of the drug, and MTT assays were performed after 24 h incubation with the indicated drugs. For MTT assays, media was removed from the cells by aspiration and 50 μL serum-free DMEM and 50 μL MTT solution were added to each well, and plates were incubated for 4 h at 37° C. After incubation, 150 μL of DMSO was added to each well for 15 minutes and absorbance was read at 540 nm.

HIF-1 target genes = assay: Hypoxia-inducible gene expression (RT2 profiler array, qRT-PCR) in PC3 Dox-PIM1 cells; type: cell-based; conditions: eleven genes; Dox 24 h, ± AZD1208 for 8 h, normoxia (FIG. 3F)
Experimental: Hypoxia-responsive gene expression was measured and quantified using RT^2 hypoxia-signaling PCR profiler arrays using the manufacturer's software (Qiagen). All other qRT-PCR reactions were performed using qPCRBIO SyGreen Blue Mix (PCR Biosystems), according to the manufacturer's protocol. Validated primer sets (QuantiTech primer assays; Qiagen) for each of the following genes were purchased to measure gene expression: VEGF-A, angiopoietin like 4 (ANGPTL4), and hexokinase 2 (HK2). HIF1α, PIM1 and Actin primers were purchased from IDT. Actin was used to normalize.

B24 and C34 cell lines = assay: MTT cell viability, HIF-1α T455D mutant SW620 lines B24 and C34; type: cell-based; conditions: B24 and C34, increasing doses, 24 h (FIG. 6B)
Experimental: as §5

SW620 tumors = assay: SW620 xenograft in SCID mice; type: in vivo
Experimental: as §1, §2, §3, §4

PIM1 [2] = target: T1, PIM1; type: biochemical; conditions: immunoprecipitated HA-HIF-1α, recombinant PIM1 (FIG. 4D)
Experimental: In vivo: HA-HIF-1α or its mutant (T455A) were immunoprecipitated with anti-HA antibodies. Immune complexes were washed three times in lysis buffer, then washed twice in 1× kinase buffer and incubated with 0.1 μg of recombinant active PIM1 and 100 μmol/L of ATP for 30 min at 25° C. Reactions were stopped by washing twice in a cold kinase buffer and boiling in 2×SDS loading buffer. The sample was separated on a SDS-polyacrylamide gel and subjected to Western blot analysis with anti-phospho HIF-1α (T455) antibody.

| Compound | expression of HIF-1 target genes in tumor tissue (RT-PCR) (B24 and C34 tumors; B24 and C34 tumors, AZD1208 30 mg/kg (FIG. 6K)) | HIF-1α levels in tumors (IHC) (B24 and C34 tumors; B24 or C34 tumors, AZD1208 30 mg/kg (FIG. 6I)) | apoptosis (cleaved caspase-3 staining) (B24 and C34 tumors; B24 or C34 tumors, AZD1208 30 mg/kg (FIG. 6J)) | tumor growth (B24 and C34 tumors; B24 or C34 xenografts, AZD1208 30 mg/kg/day p.o. (FIG. 6G)) | tumor vasculature (H&E staining) (B24 and C34 tumors; C34 and B24 tumors, AZD1208 30 mg/kg (FIG. 6H)) | phosphorylation of HIF-1α by PIM1 (autoradiography) (PIM1 [1]) | ability of PIM1 to increase HIF-1α protein levels (HIF-1α) | PIM1-induced increase of HIF-1 activity (HRE-Luc normalized to Renilla-Luc) (HIF-1) | cell viability (MTT) (SW620 cells) | transcript levels of hypoxia-inducible genes upregulated at least 3-fold by PIM1 (HIF-1 target genes) | cell viability (MTT), sensitivity versus parental SW620 (B24 and C34 cell lines) | HIF-1α levels in tumors (IHC) (SW620 tumors; SW620 tumors, AZD1208 30 mg/kg (FIG. 6I)) | apoptosis (cleaved caspase-3 staining) (SW620 tumors; SW620 tumors, AZD1208 30 mg/kg (FIG. 6J)) | expression of pro-angiogenic genes VEGF-A and ANGPT4 in tumor tissue (RT-PCR) (SW620 tumors; SW620 tumors, AZD1208 30 mg/kg (FIG. 6K)) | tumor volume (SW620 tumors; SW620 tumors, AZD1208 30 mg/kg/day p.o. (FIG. 6G)) | tumor vasculature (H&E staining) (SW620 tumors; SW620 xenografts, AZD1208 30 mg/kg (FIG. 6H)) | phosphorylation of wild-type HIF-1α at Thr455 by PIM1 (PIM1 [2]) | kinase assay on immunoprecipitated HA-HIF-1α, western blot with phospho-T455 antibody (HA-HIF-1α (wild-type)) | in vitro kinase assay (32P-ATP autoradiography; mass spectrometry of phosphorylation sites) (recombinant GST-HIF-1α) |
| --- | --- | --- | --- | --- | --- | --- | --- | --- | --- | --- | --- | --- | --- | --- | --- | --- | --- | --- | --- |
| N[C@@H]1CCCN(c2c(/C=C3\SC(=O)NC3=O)cccc2-c2ccccc2)C1 [AZD1208] | no effect | refractory to PIM inhibition | no significant apoptosis was observed | unable to slow the growth | regular vasculature was observed | phosphorylation was lost | blocked the ability of PIM1 to increase HIF-1α protein levels | reversed | significant and dose-dependent reduction in viability | significantly reduced | less sensitive | significantly reduced | increased | reduced | significantly reduced | disrupted tumor vasculature | blocked | – | – |
| recombinant full-length GST-PIM1 | – | – | – | – | – | – | – | – | – | – | – | – | – | – | – | – | – | Wild-type HIF-1α displayed robust phosphorylation at Thr455 by PIM1, which was blocked by AZD1208 | Autoradiography revealed that PIM1 is able to phosphorylate HIF-1α, and phosphorylation was lost in the presence of a PIM inhibitor |
